How the values were obtained:
[1] = system: cultured human mast cells (CHMC); experiment: CHMC low cell density IgE activation: tryptase and LTC4 assays; assay type: cell-based; settings: Low Density CHMC, anti-IgE activation
Summary of the method: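 Cultured human mast cells at low density (1000-1500 per well) rested 1 h at 37° C, then stimulated with anti-IgE for 30 min at 37° C. Supernatant tryptase measured with fluorogenic substrate (30 min, room temperature); LTC4 quantified by ELISA on diluted supernatant.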

[2] = system: cultured human mast cells (CHMC); experiment: CHMC low cell density ionomycin activation: tryptase assay; assay type: cell-based; settings: Low Density CHMC, ionomycin activation, tryptase readout, read-out: CHMC Ionomycin Tryptase
[3] = Homo sapiens, Mast cell, tryptase readout, read-out: CHMC anti-IgE Tryptase

Row | Structure (SMILES) | IC50 [1, 3] [µM] | IC50 ([2]; Homo sapiens, Mast cell) [µM] | IC50 ([1]; LTC4 readout, read-out: CHMC anti-IgE LTC4) [µM] | IC50 ([1]; tryptase readout, read-out: CHMC anti-IgE Tryptase) [µM] | IC50 [2] [µM]
1 | CNC(=O)c1cc2cc(Nc3nc(Nc4ccc5c(c4)OCCO5)ncc3F)ccc2o1 [Compound R926491, N2-(3,4-Ethylenedioxyphenyl)-5-fluoro-N4-[2-(N-methylamino)carbonylbenzofuran-5-yl]-2,4-pyrimidinediamine] | 1.16 | > 10 |  |  | 
2 | c1cc2c(cc1Nc1cc(Nc3ccc4c(c3)OCCO4)nc(Nc3ccc4c(c3)OCCO4)n1)OCCO2 [Compound R926516, N2,N4,N6-Tris(3,4-ethylenedioxyphenyl)-2,4,6-pyrimidinetriamine] | 1 | > 10 |  |  | 
3 | Fc1cnc(Nc2ccc3[nH]ccc3c2)nc1Nc1ccc2[nH]ccc2c1 [Compound R926582, N2,N4-Bis(indol-5-yl)-5-fluoro-2,4-pyrimidinediamine] | 1.3 | > 10 |  |  | 
4 | Oc1cccc(Nc2nc(Cl)c(Cl)c(Nc3cccc(O)c3)n2)c1 [Compound R926591, N2,N4-Bis(3-hydroxyphenyl)-5,6-dichloro-2,4-pyrimidinediamine] | 2.62 | > 10 |  |  | 
5 | COC(=O)c1cc2cc(Nc3ncc(F)c(Nc4ccc5[nH]c(C(=O)OC)cc5c4)n3)ccc2[nH]1 [Compound R926593] |  |  | 0.495 | 0.68 | 8.3
6 | Fc1cnc(Nc2ccc3cc[nH]c3c2)nc1Nc1ccc2cc[nH]c2c1 [Compound R926594, N2,N4-Bis(indol-6-yl)-5-fluoro-2,4-pyrimidinediamine] | > 10 | > 10 |  |  | 
7 | COC(=O)c1cc2cc(Nc3ncc(F)c(Nc4ccc5oc(C(=O)OC)cc5c4)n3)ccc2o1 [Compound R926604, N2,N4-Bis(2-methoxycarbonylbenzofuran-5-yl)-5-fluoro-2,4-pyrimidinediamine] | 2.85 | > 10 |  |  | 
8 | COC(=O)Cc1ccc(Nc2ncc(F)c(Nc3ccc(CC(=O)OC)cc3)n2)cc1 [Compound R926605, N2,N4-Bis[4-(methoxycarbonylmethyl)phenyl]-5-fluoro-2,4-pyrimidinediamine] | 2.45 | > 10 |  |  | 
9 | CCOC(=O)c1cc2cc(Nc3ncc(F)c(Nc4cccc(O)c4)n3)ccc2[nH]1 [Compound R926615, N2-(2-Ethoxycarbonylindol-5-yl)-5-fluoro-N4-(3-hydroxyphenyl)-2,4-pyrimidinediamine] | 0.445 | > 10 |  |  | 
10 | CCOC(=O)c1cc2cc(Nc3ncc(F)c(Nc4ccc5[nH]c(C(=O)OCC)cc5c4)n3)ccc2[nH]1 [Compound R926616, N2,N4-Bis(2-ethoxycarbonylindol-5-yl)-5-fluoro-2,4-pyrimidinediamine] | 0.625 | 3.25 |  |  | 
11 | O=c1ccc2cc(Nc3ncc(F)c(Nc4ccc5oc(=O)ccc5c4)n3)ccc2o1 [Compound R926617, N2,N4-Bis(coumarin-6-yl)-5-fluoro-2,4-pyrimidinediamine] | 9.45 | > 10 |  |  | 
12 | Cc1cc(Nc2ncc(F)c(Nc3cc(C)c(O)cc3C)n2)c(C)cc1O [Compound R926623, N2,N4-Bis(2,5-dimethyl-4-hydroxyphenyl)-5-fluoro-2,4-pyrimidinediamine] | > 10 | > 10 |  |  | 
13 | CCOC(=O)Cc1ccc(Nc2ncc(C#N)c(Nc3ccc(CC(=O)OCC)cc3)n2)cc1 [Compound R926662, N2,N4-Bis[4-(ethoxycarbonylmethyl)phenyl]-5-cyano-2,4-pyrimidinediamine] | > 10 | > 10 |  |  | 
14 | CCOC(=O)Cc1ccc(Nc2ncc(C(F)(F)F)c(Nc3ccc(CC(=O)OCC)cc3)n2)cc1 [Compound R926663, N2,N4-Bis[4-(ethoxycarbonylmethyl)phenyl]-5-trifluoromethyl-2,4-pyrimidinediamine] | > 10 | > 10 |  |  | 
15 | Oc1ccc(Nc2ncc(F)c(Nc3ccc(O)c(Cl)c3)n2)cc1Cl [Compound R926675, N2,N4-Bis(3-chloro-4-hydroxyphenyl)-5-fluoro-2,4-pyrimidinediamine] | 0.63 | > 10 |  |  | 
16 | Oc1ccc(Nc2ncc(F)c(Nc3ccc(O)c(F)c3)n2)cc1F [Compound R926681, N2,N4-Bis(3-fluoro-4-hydroxyphenyl)-5-fluoro-2,4-pyrimidinediamine] | 0.775 | > 10 |  |  | 
17 | CC(=O)Nc1cccc(Nc2ncc(F)c(Nc3cccc(NC(C)=O)c3)n2)c1 [Compound R926682, N2,N4-Bis(3-acetamidophenyl)-5-fluoro-2,4-pyrimidinediamine] | 8.41 | > 10 |  |  | 
18 | Oc1ccc(Nc2ncc(F)c(Nc3ccc(O)cc3F)n2)c(F)c1 [Compound R926683, N2,N4-Bis(2-fluoro-4-hydroxyphenyl)-5-fluoro-2,4-pyrimidinediamine] | 10 | > 10 |  |  | 
19 | COc1cc(Nc2ncc(F)c(Nc3cc(OC)c(OC)c(OC)c3)n2)cc(OC)c1OC [Compound R926688, N2,N4-Bis(3,4,5-trimethoxyphenyl)-5-fluoro-2,4-pyrimidinediamine] | 2.25 | > 10 |  |  | 
20 | COC(=O)c1cc2cc(Nc3ncc(F)c(Nc4ccc5c(c4)OCCO5)n3)ccc2o1 [Compound R926690, N4-(3,4-Ethylenedioxyphenyl)-5-fluoro-N2-[2-(methoxycarbonyl)benzofuran-5-yl]-2,4-pyrimidinediamine] | 0.146 | > 10 |  |  | 
21 | CC(C)Oc1ccc(Nc2ncc(F)c(Nc3ccc(OC(C)C)cc3)n2)cc1 [Compound R926701, N2,N4-Bis(4-isopropoxyphenyl)-5-fluoro-2,4-pyrimidinediamine] | 2.2 | > 10 |  |  | 
22 | CC(C)(CO)NC(=O)c1cc2cc(Nc3ncc(F)c(Nc4cccc(O)c4)n3)ccc2o1 [Compound R926715, 5-Fluoro-N2-[2-(2-hydroxy-1,1-dimethylethylamino)carbonylbenzofuran-5-yl]-N4-(3-hydroxyphenyl)-2,4-pyrimidinediamine] | 0.588 | > 10 |  |  | 
23 | O=S(=O)(c1ccc(Nc2ncc(F)c(Nc3ccc4c(c3)OCCO4)n2)cc1)N1CCCC1 [Compound R926716, N4-(3,4-Ethylenedioxyphenyl)-5-fluoro-N2-[4-(tetrahydro-(1H)-pyrrol-1-ylsulfonyl)phenyl]-2,4-pyrimidinediamine] | 1.06 | > 10 |  |  | 
24 | Fc1cnc(NCCCN2CCN(Cc3c(F)cccc3Cl)CC2)nc1Nc1ccc2c(c1)OCCO2 [Compound R926717, N2-[3-[4-(2-Chloro-6-fluorobenzyl)piperazino]propyl]-N4-(3,4-ethylenedioxyphenyl)-5-fluoro-2,4-pyrimidinediamine] | 7.87 | > 10 |  |  | 
25 | CC(C)(C)c1ccc(Nc2nc(Nc3ccc4c(c3)CC(C(=O)O)O4)ncc2F)cc1 (stereo not shown) [Compound R926720, N4-(4-tert-Butylphenyl)-5-fluoro-N2-[2,3-dihydro-2-(carboxy)benzofuran-5-yl]-2,4-pyrimidinediamine] | 1.55 | > 10 |  |  | 
26 | Fc1cnc(Nc2ccc3c(c2)OCCO3)nc1NCc1csc2ccc(Cl)cc12 [Compound R926721, N4-[(5-Chloro-1-benzothiophen-3-yl)methyl]-N2-(3,4-ethylenedioxyphenyl)-5-fluoro-2,4-pyrimidinediamine] | 4.44 | > 10 |  |  | 
27 | Oc1cccc(Nc2ncc(F)c(NCc3csc4ccc(Cl)cc34)n2)c1 [Compound R926722, N4-[(5-Chloro-1-benzothiophen-3-yl)methyl]-5-fluoro-N2-(3-hydroxyphenyl)-2,4-pyrimidinediamine] | 5.96 | > 10 |  |  | 

From patent US10828301B2, “2,4-pyrimidinediamine compounds and their uses” (Rigel Pharmaceuticals, Inc, priority 2002, dated 2020)
